The supplement of paper PMC10307832

Experiments:
Test in all cases: relative viability (nuclei count vs DMSO), 5 days (fraction); higher = more cells survive
COR-L23 = system: COR-L23
In short: (§1)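 Lung cancer cell lines in 1536-well plates got either a single drug or a fixed anchor-drug dose together with five library-drug doses (not always all listed) in √10 steps, by pin tool, on the day after seeding. Nuclei were counted after 5 days, and relative viability is the treated-to-vehicle ratio of nuclei counts. Values are medians of duplicate plates.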

EMC-BAC-2 = system: EMC-BAC-2
In short: as §1

EPLC-272H = system: EPLC-272H
In short: as §1

H3255 = system: H3255
In short: as §1

HCC-44 = system: HCC-44
In short: as §1

HCC-827 = system: HCC-827
In short: as §1

LU99A = system: LU99A
In short: as §1

NCI-H1395 = system: NCI-H1395
In short: as §1

NCI-H1563 = system: NCI-H1563
In short: as §1

NCI-H1651 = system: NCI-H1651
In short: as §1

NCI-H1793 = system: NCI-H1793
In short: as §1

NCI-H1944 = system: NCI-H1944
In short: as §1

NCI-H2023 = system: NCI-H2023
In short: as §1

NCI-H2085 = system: NCI-H2085
In short: as §1

NCI-H2087 = system: NCI-H2087
In short: as §1

NCI-H2405 = system: NCI-H2405
In short: as §1

NCI-H520 = system: NCI-H520
In short: as §1

NCI-H650 = system: NCI-H650
In short: as §1

NCI-H838 = system: NCI-H838
In short: as §1

SK-MES-1 = system: SK-MES-1
In short: as §1

COc1cc2nccc(Oc3ccc(NC(=O)Nc4cc(C)on4)c(Cl)c3)c2cc1OC [Tivozanib] + CS(=O)(=O)CCNCc1ccc(-c2ccc3ncnc(Nc4ccc(OCc5cccc(F)c5)c(Cl)c4)c3c2)o1 [Lapatinib] (partner 2 µM)
relative viability (COR-L23; first compound 0.005 µM): 0.902
relative viability (COR-L23; first compound 0.01581 µM): 0.99
relative viability (COR-L23; first compound 0.05 µM): 0.991
relative viability (COR-L23; first compound 0.1581 µM): 0.928
relative viability (COR-L23; first compound 0.5 µM): 0.67
relative viability (EMC-BAC-2; first compound 0.005 µM): 0.954
relative viability (EMC-BAC-2; first compound 0.01581 µM): 0.875
relative viability (EMC-BAC-2; first compound 0.05 µM): 0.871
relative viability (EMC-BAC-2; first compound 0.1581 µM): 0.675
relative viability (EMC-BAC-2; first compound 0.5 µM): 0.908
relative viability (EPLC-272H; first compound 0.005 µM): 0.854
relative viability (EPLC-272H; first compound 0.01581 µM): 0.844
relative viability (EPLC-272H; first compound 0.05 µM): 0.938
relative viability (EPLC-272H; first compound 0.1581 µM): 0.806
relative viability (EPLC-272H; first compound 0.5 µM): 0.671
relative viability (H3255; first compound 0.005 µM): 0.247
relative viability (H3255; first compound 0.01581 µM): 0.223
relative viability (H3255; first compound 0.05 µM): 0.23
relative viability (H3255; first compound 0.1581 µM): 0.232
relative viability (H3255; first compound 0.5 µM): 0.211
relative viability (HCC-44; first compound 0.005 µM): 0.95
relative viability (HCC-44; first compound 0.01581 µM): 0.991
relative viability (HCC-44; first compound 0.05 µM): 1.01
relative viability (HCC-44; first compound 0.1581 µM): 0.991
relative viability (HCC-44; first compound 0.5 µM): 0.952
relative viability (HCC-827; first compound 0.005 µM): 0.244
relative viability (HCC-827; first compound 0.01581 µM): 0.181
relative viability (HCC-827; first compound 0.05 µM): 0.204
relative viability (HCC-827; first compound 0.1581 µM): 0.233
relative viability (HCC-827; first compound 0.5 µM): 0.842
relative viability (LU99A; first compound 0.005 µM): 0.914
relative viability (LU99A; first compound 0.01581 µM): 0.924
relative viability (LU99A; first compound 0.05 µM): 0.967
relative viability (LU99A; first compound 0.5 µM): 0.919
relative viability (NCI-H1395; first compound 0.005 µM): 0.939
relative viability (NCI-H1395; first compound 0.01581 µM): 1.11
relative viability (NCI-H1395; first compound 0.05 µM): 1.02
relative viability (NCI-H1395; first compound 0.1581 µM): 0.863
relative viability (NCI-H1395; first compound 0.5 µM): 0.778
relative viability (NCI-H1563; first compound 0.005 µM): 0.848
relative viability (NCI-H1563; first compound 0.01581 µM): 0.985
relative viability (NCI-H1563; first compound 0.05 µM): 0.938
relative viability (NCI-H1563; first compound 0.1581 µM): 0.856
relative viability (NCI-H1563; first compound 0.5 µM): 0.796
relative viability (NCI-H1651; first compound 0.005 µM): 0.744
relative viability (NCI-H1651; first compound 0.01581 µM): 0.864
relative viability (NCI-H1651; first compound 0.05 µM): 0.863
relative viability (NCI-H1651; first compound 0.1581 µM): 0.653
relative viability (NCI-H1651; first compound 0.5 µM): 0.634
relative viability (NCI-H1793; first compound 0.005 µM): 0.619
relative viability (NCI-H1793; first compound 0.01581 µM): 0.478
relative viability (NCI-H1793; first compound 0.05 µM): 0.696
relative viability (NCI-H1793; first compound 0.5 µM): 0.867
relative viability (NCI-H1944; first compound 0.005 µM): 0.826
relative viability (NCI-H1944; first compound 0.01581 µM): 0.888
relative viability (NCI-H1944; first compound 0.05 µM): 0.758
relative viability (NCI-H1944; first compound 0.1581 µM): 0.666
relative viability (NCI-H1944; first compound 0.5 µM): 0.841
relative viability (NCI-H2023; first compound 0.005 µM): 0.731
relative viability (NCI-H2023; first compound 0.01581 µM): 0.97
relative viability (NCI-H2023; first compound 0.05 µM): 0.878
relative viability (NCI-H2023; first compound 0.1581 µM): 0.634
relative viability (NCI-H2023; first compound 0.5 µM): 0.768
relative viability (NCI-H2085; first compound 0.005 µM): 0.66
relative viability (NCI-H2085; first compound 0.01581 µM): 0.769
relative viability (NCI-H2085; first compound 0.05 µM): 0.774
relative viability (NCI-H2085; first compound 0.1581 µM): 0.579
relative viability (NCI-H2085; first compound 0.5 µM): 0.627
relative viability (NCI-H2087; first compound 0.005 µM): 1
relative viability (NCI-H2087; first compound 0.01581 µM): 0.885
relative viability (NCI-H2087; first compound 0.05 µM): 0.942
relative viability (NCI-H2087; first compound 0.1581 µM): 1.2
relative viability (NCI-H2087; first compound 0.5 µM): 0.859
relative viability (NCI-H2405; first compound 0.005 µM): 0.972
relative viability (NCI-H2405; first compound 0.01581 µM): 1.28
relative viability (NCI-H2405; first compound 0.05 µM): 1.1
relative viability (NCI-H2405; first compound 0.1581 µM): 1.01
relative viability (NCI-H2405; first compound 0.5 µM): 0.572
relative viability (NCI-H520; first compound 0.005 µM): 0.763
relative viability (NCI-H520; first compound 0.01581 µM): 0.912
relative viability (NCI-H520; first compound 0.05 µM): 0.87
relative viability (NCI-H520; first compound 0.1581 µM): 0.82
relative viability (NCI-H520; first compound 0.5 µM): 0.757
relative viability (NCI-H650; first compound 0.005 µM): 0.759
relative viability (NCI-H650; first compound 0.01581 µM): 0.807
relative viability (NCI-H650; first compound 0.05 µM): 0.844
relative viability (NCI-H650; first compound 0.1581 µM): 0.415
relative viability (NCI-H650; first compound 0.5 µM): 0.535
relative viability (NCI-H838; first compound 0.005 µM): 0.933
relative viability (NCI-H838; first compound 0.01581 µM): 0.913
relative viability (NCI-H838; first compound 0.05 µM): 1.01
relative viability (NCI-H838; first compound 0.5 µM): 0.87
relative viability (SK-MES-1; first compound 0.005 µM): 0.421
relative viability (SK-MES-1; first compound 0.01581 µM): 0.446
relative viability (SK-MES-1; first compound 0.05 µM): 0.5
relative viability (SK-MES-1; first compound 0.1581 µM): 0.437
relative viability (SK-MES-1; first compound 0.5 µM): 0.509
